Laboratory results published in patent US10358451B2, “Heterocycles useful as IDO and TDO inhibitors” (Hangzhou Innogate Pharma Co., Ltd., priority 2015, dated 2019).

Key:
human IDO enzyme (IDO1) = human IDO enzyme (IDO1) (Homo sapiens (Human), UniProt P14902); assay: IDO1 enzyme assay; type: biochemical; conditions: for inhibition at 0.5 µM: read-out: IDO1 (inhibition % at 500 nM)
Experimental: The compounds were initially prepared in DMSO at 10 mM, then diluted in MES buffer to desired concentration. […] The mixture was centrifuged for 1 minute, then pre-incubated at room temperature for 30 minutes. […] The resulting reaction mixture was incubated at 25° C. for 40 minutes. The reaction was terminated by adding 50 ul of 30% (w/v) trichloroacetic acid. The sample was further incubated for 30 min at 60° C. and centrifuged at 2000 rpm for 5 min to remove precipitated protein. The supernatant was used to mix with an equal volume of Ehrlich's reagent (2% w/v p-dimethylaminobenzaldehyde in glacial acetic acid), then mixture was incubated at room temperature for 10 minutes. OD value was read at 490 nm in a spectrophotometer.
wherein High control=no compound; Low control=no enzyme and no compound.
IC50 values were calculated by fitting the doseresponse curves with Xlfit excel add-in version 4.3.1.

human TDO enzyme = human TDO enzyme (Homo sapiens (Human), UniProt P48775); assay: TDO enzyme assay; type: biochemical; conditions: for inhibition at 1 µM: read-out: TDO (inhibition % at 1000 nM)
Experimental: In vitro TDO enzymatic activity was determined in a mixture of 50 mM potassium phosphate buffer, pH 6.5; 200 nM human TDO enzyme, 300 μM L-Tryptophan, 0.2 mg/mL Catalase, 20 mM ascorbic Acid and 20 μM Methylene Blue. 100× compounds were prepared in DMSO from 1 mM, then diluted three fold, 8 doses in total. 2 μL compounds were added to 96 well plate, followed by addition of 100 μL 400 nM TDO and 0.4 mg/ml catalase in each well. The mixture was centrifuged for 1 minute, then pre-incubated at room temperature for 10 minutes. The reaction was started by the addition of 100 μL mixture of 600 μM L-Tryptophan, 40 μM methylene blue and 40 mM ascorbic acid in 50 mM potassium phosphate buffer, pH 6.5. […] Copy slope data from Synergy program, and convert slope values to inhibition values. Percent inhibition=(max−conversion)/(max−min)*100. “max” stands for high control; “min” stands for low control. Fit the data in GraphPad Prism5.0 to obtain IC50 values. Equation used is: Y=Bottom+(Top−Bottom)/(1+10^((Log IC50−X)*HillSlope).

Chain of human IDO enzyme (IDO1) (P14902 whole entry): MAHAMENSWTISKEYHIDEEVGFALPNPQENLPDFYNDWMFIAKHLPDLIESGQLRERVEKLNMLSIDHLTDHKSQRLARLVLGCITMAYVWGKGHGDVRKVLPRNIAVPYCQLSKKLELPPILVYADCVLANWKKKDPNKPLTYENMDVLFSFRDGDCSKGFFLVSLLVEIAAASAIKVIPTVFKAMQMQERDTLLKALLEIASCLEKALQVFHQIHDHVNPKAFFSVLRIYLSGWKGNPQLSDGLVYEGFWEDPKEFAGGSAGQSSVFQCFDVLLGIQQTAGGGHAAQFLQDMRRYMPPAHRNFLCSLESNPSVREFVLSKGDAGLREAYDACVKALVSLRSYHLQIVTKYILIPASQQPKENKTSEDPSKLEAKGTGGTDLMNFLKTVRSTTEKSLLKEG
Chain of human TDO enzyme (P48775 whole entry): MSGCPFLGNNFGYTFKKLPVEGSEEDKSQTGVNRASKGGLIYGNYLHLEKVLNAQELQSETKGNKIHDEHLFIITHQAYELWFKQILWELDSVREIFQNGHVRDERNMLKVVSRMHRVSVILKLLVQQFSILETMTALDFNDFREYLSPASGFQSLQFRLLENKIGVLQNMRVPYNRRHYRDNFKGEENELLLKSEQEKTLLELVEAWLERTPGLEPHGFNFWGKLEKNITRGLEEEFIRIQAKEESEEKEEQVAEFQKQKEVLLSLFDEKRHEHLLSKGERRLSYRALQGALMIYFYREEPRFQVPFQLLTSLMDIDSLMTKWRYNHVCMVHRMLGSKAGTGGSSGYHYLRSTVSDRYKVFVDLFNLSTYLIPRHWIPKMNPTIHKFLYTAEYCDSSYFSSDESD

inhibition at 1 µM (human TDO enzyme) | SMILES | IC50 (human IDO enzyme (IDO1)) | inhibition at 0.5 µM (human IDO enzyme (IDO1)) | IC50 (human TDO enzyme)
 | OC(CC1c2c(F)cccc2-c2cncn21)C1C2CC3CC1CC(O)(C3)C2 [Compound 18k-1, (1s,3R,5S,7s)-4-(2-(6-fluoro-5H-imidazo[5,1-a]isoindol-5-yl)-1-hydroxyethyl)adamantan-1-ol] | < 500 nM |  | 
> 50% | OC(CC1c2ccccc2-c2cncn21)C1CCN(C2CC2)CC1 (stereo not shown) [Compound 3, 1-(1-cyclopropylpiperidin-4-yl)-2-(5H-imidazo[5,1-a]isoindol-5-yl)ethanol] |  |  | 
 | OC(CC1c2ccccc2-c2cncn21)C1CCN(c2ccccc2)CC1 (stereo not shown) [Compound 1, 2-(5H-imidazo[5,1-a]isoindol-5-yl)-1-(1-phenylpiperidin-4-yl)ethanol] |  | > 50% | 
 | O=[N+]([O-])c1cc(C(F)(F)F)ccc1N1CCC(C(O)CC2c3ccccc3-c3cncn32)CC1 (stereo not shown) [Compound 9, 2-(5H-imidazo[5,1-a]isoindol-5-yl)-1-(1-(2-nitro-4-(trifluoromethyl)phenyl)piperidin-4-yl)ethanol] | < 500 nM |  | < 200 nM
> 50% | OC(C1CCCCC1)C1(C2c3ccccc3-c3cncn32)CC1 (stereo not shown) [Compound 13, (1-(5H-imidazo[5,1-a]isoindol-5-yl)cyclopropyl)(cyclohexyl) methanol] |  |  | 
 | OC(CC1c2c(F)cccc2-c2cncn21)C1C2CC3CC1CC(O)(C3)C2 [Compound 18k-2, (1s,3R,5S,7s)-4-(2-(6-fluoro-5H-imidazo[5,1-a]isoindol-5-yl)-1-hydroxyethyl)adamantan-1-ol] | < 100 nM |  | 
> 50% | OC(CC1c2ccccc2-c2cncn21)C1CCN(c2ccc(C(F)(F)F)cc2)CC1 (stereo not shown) [Compound 8, 2-(5H-imidazo[5,1-a]isoindol-5-yl)-1-(1-(4-(trifluoromethyl)phenyl)piperidin-4-yl)ethanol] |  | > 50% | 
 | OC(CC1c2c(F)cccc2-c2cncn21)C12C[C@@H]3C[C@@H](CC(O)(C3)C1)C2 (stereo partly drawn) [Compound 15d, (1s,3r,5R,7S)-3-(2-(6-fluoro-5H-imidazo[5,1-a]isoindol-5-yl)-1-hydroxyethyl)adamantan-1-ol] | < 100 nM |  | < 200 nM
 | OC(CC1c2c(F)cccc2-c2cncn21)C12CC3CC(CC(C3)C1)C2 (stereo not shown) [Compound 15e, 1-((3r,5r,7r)-adamantan-1-yl)-2-(6-fluoro-5H-imidazo[5,1-a]isoindol-5-yl)ethanol] | < 100 nM |  | < 500 nM
 | OC(CC1c2c(F)cccc2-c2cncn21)C12C[C@@H]3C[C@@H](CC(O)(C3)C1)C2 (stereo partly drawn) [Compound 15d-2, (1s,3r,5R,7S)-3-(2-(6-fluoro-5H-imidazo[5,1-a]isoindol-5-yl)-1-hydroxyethyl)adamantan-1-ol] | > 500 nM |  | 
 | OC(CC1c2c(F)cccc2-c2cncn21)C12CCC(O)(CC1)CC2 (stereo not shown) [Compound 16, 4-(2-(6-fluoro-5H-imidazo[5,1-a]isoindol-5-yl)-1-hydroxyethyl)bicyclo[2.2.2]octan-1-ol] | < 100 nM |  | < 200 nM
 | OC1[C@@H]2CC3C[C@H]1CC(C(O)CC1c4c(F)cccc4-c4cncn41)(C3)C2 (stereo partly drawn) [Compound 17, (1R,2s,3S,5s,7s)-5-(2-(6-fluoro-5H-imidazo[5,1-a]isoindol-5-yl)-1-hydroxyethyl)adamantan-2-ol] | < 100 nM |  | < 200 nM
 | O=[N+]([O-])c1ccccc1N1CCC(C(O)CC2c3ccccc3-c3cncn32)CC1 (stereo not shown) [Compound 7, 2-(5H-imidazo[5,1-a]isoindol-5-yl)-1-(1-(2-nitrophenyl)piperidin-4-yl)ethanol] |  | > 50% | 
 | OC(CC1c2c(F)cccc2-c2cncn21)C12C[C@@H]3C[C@@H](CC(O)(C3)C1)C2 (stereo partly drawn) [Compound 15d-4, (1s,3r,5R,7S)-3-(2-(6-fluoro-5H-imidazo[5,1-a]isoindol-5-yl)-1-hydroxyethyl)adamantan-1-ol] | > 500 nM |  | 
 | OC(CC1c2c(F)cccc2-c2cncn21)C12C[C@@H]3C[C@@H](CC(O)(C3)C1)C2 (stereo partly drawn) [Compound 15d-1, (1s,3r,5R,7S)-3-(2-(6-fluoro-5H-imidazo[5,1-a]isoindol-5-yl)-1-hydroxyethyl)adamantan-1-ol] | > 500 nM |  | 
 | OC(CC1c2c(F)cccc2-c2cncn21)C12C[C@@H]3C[C@@H](CC(O)(C3)C1)C2 (stereo partly drawn) [Compound 15d-3, (1s,3r,5R,7S)-3-(2-(6-fluoro-5H-imidazo[5,1-a]isoindol-5-yl)-1-hydroxyethyl)adamantan-1-ol] | < 100 nM |  | 
 | OC(CC1c2ccccc2-c2cncn21)C12C[C@@H]3C[C@@H](CC(O)(C3)C1)C2 (stereo partly drawn) [Compound 14f, (1s,3r,5R,7S)-3-(1-hydroxy-2-(5H-imidazo[5,1-a]isoindol-5-yl)ethyl)adamantan-1-ol] | < 100 nM |  | < 200 nM

SMILES | inhibition at 1 µM (human TDO enzyme) | IC50 (human IDO enzyme (IDO1)) | inhibition at 0.5 µM (human IDO enzyme (IDO1)) | IC50 (human TDO enzyme)
OC(CC1c2ccccc2-c2cncn21)C12CC3CC(CC(C3)C1)C2 (stereo not shown) [Compound 10, 1-((3r,5r,7r)-adamantan-1-yl)-2-(5H-imidazo[5,1-a]isoindol-5-yl)ethanol] | > 50% | < 500 nM |  | 
FC(F)(CC1c2ccccc2-c2cncn21)C1CCCCC1 (stereo not shown) [Compound 6, 5-(2-cyclohexyl-2,2-difluoroethyl)-5H-imidazo[5,1-a]isoindole] | > 50% |  | > 50% | 
